Test results from patent publication US20240018230A1, “METHODS FOR TREATING OR MODULATING AN INFLAMMATORY RESPONSE” (St. Jude Children's Research Hospital, Inc., priority 2020, published 2024).

B1: IFN-γ: recombinant IFN-γ protein (Peprotech) (protein, UniProt P01579 24-161, looked up)
Interferon gamma: QDPYVKEAENLKKYFNAGHSDVADNGTLFLGILKNWKEESDRKIMQSQIVSFYFKLFKNFKDDQSIQKSVETIKEDMNVKFFNSNKKKRDDFEKLTNYSVTDLNVQRKAIHELIQVMAELSPAAKTGKRKRSQMLFRG

Key:
[1] = system: bone marrow-derived macrophages (BMDMs); test: Real-time imaging of cell death (propidium iodide, INCUCYTE) in BMDMs; format: cell-based, mouse; conditions: for inhibition of cell death in response to TNF-α and IFN-γ treatment: wild-type BMDMs co-treated with 1 mM L-NAME or 100 μM 1400W; for induction of cell death in BMDMs: standard cytokine concentrations (25 ng/mL TNF-α, 50 ng/mL IFN-γ)
[2] = system: colon cancer and melanoma cell lines; test: NO inhibition of TNF-α plus IFN-γ-induced cancer cell death; format: cell-based, human; conditions: 1 mM L-NAME or 100 μM 1400W
Protocol: Cell Culture and Stimulation Methods. […] Cancer cells were seeded a day before stimulation. On the day of stimulation, the cells were washed once with warm and sterile DPBS, followed by treatment with different cytokines for 48 hours. The concentration of the cytokines used were 25 ng/mL of IL-6 (Peprotech), IL-8 (Peprotech), IL-18 (R&D), IL-15 (Peprotech), IL-1α (Peprotech), IL-1β (Peprotech), IL-2 (Peprotech), TNF-α (Peprotech), and IFN-γ (Peprotech). For the inhibition of nitric oxide (NO), cancer cells were co-treated with 1 mM of L-NAME hydrochloride (TOCRIS) or 100 μM of […] dihydrochloride (Enzo Life Sciences) along with the cytokines. For inhibition of the JAK signaling pathway, the cancer cells were co-treated with 5 μM of baricitinib (Achemblock) all through the experiment. Cell Death Analysis. The kinetics of cell death were measured using a two-color INCUCYTE® S3 imaging system (Essen Biosciences). […] A series of images were acquired at 1-hour time intervals for up to 48 hours post-treatment with a 20× objective and analyzed using the INCUCYTE® S3 software, which allows precise analysis of the number of dye-positive dead cells present in each image. […]

COLO-205 cell tumors = test: NSG mouse xenograft tumor model, intratumoral cytokines; format: in vivo, NSG mice; conditions: intra-tumoral administration on day 12, 14 and 16 post-transplantation
Protocol: NSG Mouse Xenograft Tumor Model. The NSG mice (NOD/SCID-gamma null mouse strain that lacks […]) were used as the model recipients for the subcutaneous transplantation of human COLO-205 cancer cells. Briefly, 8- to 10-week-old NSG mice were shaved on their lower backs and transplanted with 2×10^6 COLO-205 cells in 200 μl of medium prepared by mixing (1:1) RPMI and a solubilized basement membrane preparation sold under the tradename MATRIGEL® (BD Bioscience). The mice were monitored regularly for engraftment and growth of COLO-205 cancer cell tumors. The recipient mice were divided into four groups and treated intratumorally with injection of the indicated cytokines or PBS (groups: (i) PBS, (ii) TNF-α, (iii) IFN-γ, or (iv) TNF-α(and IFN-γ) on day 12, 14 and 16 post-transplantation of the tumor cells. The tumor growth was monitored and measured using digital calipers, and the volume of the tumors were calculated using the formula: volume=(length×width^2)×½.

[3] = In vivo TNF-α and IFN-γ-induced inflammatory shock (mortality, serum chemistry, blood counts, flow cytometry, histopathology); set-up: species or system mice; conditions: i.p. 10 μg TNF-α, 20 μg IFN-γ, or both
Protocol: In vivo TNF-α and IFN-γ-Induced Inflammatory Shock. Six- to eight-week-old mice of the indicated genotypes were injected intraperitoneally with 10 μg TNF-α alone, 20 μg IFN-γ alone, or TNF-α+IFN-γ diluted in endotoxin-free PBS. Animals were under permanent observation, and survival was assessed every 30 minutes. Blood was collected 5 hours after cytokine injection. Blood composition was analyzed using an automated hematology analyzer. Serum lactate dehydrogenase (LDH), alanine aminotransferase (ALT), aspartate aminotransferase (AST), blood urea nitrogen (BUN), and ferritin were analyzed by colorimetry using respective kits (LDH, ALT, AST, and BUN, all from HORIBA; and ferritin from Abcam) according to the manufacturer's instructions.
Flow Cytometry Methods. Peripheral blood was mixed with ACK lysis buffer for 3 minutes to lyse the red blood cells (RBCs). The cells were then stained with monoclonal antibodies for the following markers for flow cytometry: CD11b from eBioscience; F4/80, Ly6C, and Ly6G from BioLegend; and CD19, TCRb, and CD45.2 from Tonbo Biosciences. […]
Histopathology Methods. […] The number of cleaved caspase-3- and TUNEL-positive cells in five high power fields (20×) were counted per mouse.

BMDMs = test: Immunoblot analysis of cell death effectors in BMDMs; format: cell-based, mouse; conditions: for cleavage of caspase-3, -7 and -8: single cytokines compared with the combination
[4] = system: HCT-116 colon cancer cells; test: Western blot of PANoptosis markers in HCT-116; format: cell-based, human
Protocol: Western Blot Analysis. For the western blot analyses of caspases, cancer cells were seeded a day before stimulation at a density of 0.5×10^6 cells/well in 6-well cell culture plates. The proteins from the indicated cell types were collected by combining cell lysates with culture supernatants with caspase lysis buffer (with 1× protease inhibitors, 1× phosphatase inhibitors, 10% NP-40, and 25 mM DTT) and 4× sample loading buffer (containing SDS and 2-mercaptoethanol). For the western blot analysis of all other signaling proteins, the cells were lysed in RIPA buffer, supplemented with protease inhibitor and phosphoStop as per the manufacturer's instructions and sample loading buffer. […]

Row | Molecule | inhibition of cell death in response to TNF-α and IFN-γ treatment [1] | inhibition of cancer cell death induced by TNF-α plus IFN-γ treatment [2] | induction of cell death in BMDMs [1] | mortality in mice [3] | cleavage of GSDMD and GSDME (combination: GSDME) (BMDMs) | phosphorylation of MLKL (BMDMs) | cleavage of caspase-3, -7 and -8 (BMDMs) | activation of biochemical markers of PANoptosis in HCT-116 [4] | further results
1 | COC(=O)[C@@H](N)CCCNC(=N)N[N+](=O)[O-] [L-NAME, N5-[imino(nitroamino)methyl]-L-ornithine methyl ester] | inhibited cell death | failed to inhibit |  |  |  |  |  |  | 
2 | TNF-α |  |  | failed to induce cell death | did not cause significant mortality | did not induce robust cleavage | failed to induce robust MLKL phosphorylation | reduced cleavage | only weak activation | tumor weight (COLO-205 cell tumors): minor but significant reduction
3 | [NH-]c1c[n+](N2CCOCC2)no1 [SIN-1] |  |  |  |  |  |  |  |  | kinetics of cell death induced by NO donor ([1]; wild-type BMDMs, increasing concentrations of SIN-1): proportional to the NO concentration
4 | IFN-γ: recombinant IFN-γ protein (Peprotech) |  |  | failed to induce cell death |  | did not induce robust cleavage | failed to induce robust MLKL phosphorylation | reduced cleavage | only weak activation | 
5 | CC(=N)NCc1cccc(CN)c1 [1400W, N-[[3-(aminomethyl)phenyl]methyl]-ethanimidamide] | inhibited cell death | failed to inhibit |  |  |  |  |  |  | 
6 | B1 |  |  |  | did not cause significant mortality |  |  |  |  | 
